In publication PMC9728158, “Two Flavonoid-Based Compounds from Murraya paniculata as Novel Human Carbonic Anhydrase Isozyme II Inhibitors Detected by a Resazurin Yeast-Based Assay” (Journal of Microbiology and Biotechnology, 2019):

Target: T1, human carbonic anhydrase isozyme II (hCAII) (Homo sapiens, UniProt P00918)
T1 construct: gene CA2
Experiment: in vitro esterase assay (4-NPA hydrolysis, […] nm); also yeast-based hCAII assay
Format: biochemical

| IC50 | SMILES |
| --- | --- |
| 24 µM | COc1cc(-c2cc(=O)c3c(OC)c(OC)c(OC)c(OC)c3o2)cc(OC)c1OC [compound 4, 5,6,7,8,3′,4′,5′-heptamethoxyflavone] |
| 34.3 µM | COc1cc(-c2oc3c(OC)c(OC)cc(OC)c3c(=O)c2OC)cc(OC)c1OC [compound 9, 3,5,7,8,3′,4′,5′-Heptamethoxyflavone] |
